# Literature values, collected in patent publication US5520931A (Gacell Laboratories AB, priority 1992, dated 1996).
# System: cancer pain
# Settings: severe pain, WHO programme
compound,measurement,value
CN1CC[C@]23c4c5ccc(O)c4O[C@H]2[C@@H](O)C=C[C@H]3[C@H]1C5 [morphine],efficacy and acceptability in advanced cancer pain,both efficacious and acceptable
